Measurements taken from patent US20200032249A1, “LABELING, ISOLATION, & ANALYSIS OF RNA FROM RARE CELL POPULATIONS” (priority 2017, published 2020).

Legend:
[1] = system: MDA231 cells expressing CD/UPRT; test: Flura-tagged mRNA immunoprecipitation from MDA231 CD/UPRT cells co-cultured with mouse 4T1 cells, RT-PCR; format: cell-based, human; conditions: 12 h, 100-1000 MDA231 cells to 10^6 4T1 cells
Method: FIG. 1a-f. Labeling and purification of RNA by CD expression and 5-FC treatment. FIG. 1a—Schematic diagram showing RNA labeling using CD and 5-FC. FIG. 1b—Chemical reactions steps involved in the labeling of RNA using CD and 5-FC. The dotted arrow indicates the intermediary steps that are not shown. FIG. 1c Relative fold enrichment of mRNA isolated by Flura-tagging. 293T cells expressing CD or unlabeled controls were treated with 5-FC for the indicated times, labeled mRNAs were immunopurified using anti-BrdU antibody, and the levels of labeled mRNAs of the indicated genes relative to corresponding non-immunoprecipitated inputs normalized to immunopurified mRNAs from cells not expressing CD were quantified by RT-PCR. […] Cells were analyzed by immunofluorescence or harvested for RNA analysis. […] The fold enrichment of the indicated representative human genes over mouse housekeeping genes (mHPRT1 and mLDH1) was measured by RT-PCR (n=3±S.E.). […]
Next, we determined whether this system could be used to isolate RNA specifically from cells of interest that were admixed with a large proportion of other cells. […] After 12 h of 5-FC addition, 5-FU-labeled mRNAs were immunoprecipitated, and the proportion of human and mouse mRNA for representative housekeeping genes were determined by reverse transcriptase-polymerase chain reaction (RT-PCR). […]

293T cells expressing CD = test: immunopurification of labeled mRNAs with anti-BrdU antibody and RT-PCR, CD-expressing 293T cells; format: cell-based, human
Method: FIG. 1a-f. Labeling and purification of RNA by CD expression and 5-FC treatment. FIG. 1a—Schematic diagram showing RNA labeling using CD and 5-FC. FIG. 1b—Chemical reactions steps involved in the labeling of RNA using CD and 5-FC. The dotted arrow indicates the intermediary steps that are not shown. FIG. 1c Relative fold enrichment of mRNA isolated by Flura-tagging. 293T cells expressing CD or unlabeled controls were treated with 5-FC for the indicated times, labeled mRNAs were immunopurified using anti-BrdU antibody, and the levels of labeled mRNAs of the indicated genes relative to corresponding non-immunoprecipitated inputs normalized to immunopurified mRNAs from cells not expressing CD were quantified by RT-PCR. […] FIG. 1d—Schematic diagram of the constructs used for inducible expression of UPRT and/or CD, and the experimental design. Transduced RFP+MDA231 cells were mixed with unlabeled cells, treated with doxycycline for 24 h and then 5-FC for 4-12 h. Cells were analyzed by immunofluorescence or harvested for RNA analysis. FIG. 1e—Flura-tagging in MDA231 cells in vitro. […] The fold enrichment of the indicated representative human genes over mouse housekeeping genes (mHPRT1 and mLDH1) was measured by RT-PCR (n=3±S.E.). […]
Next, we determined whether 5-FU-labeled mRNAs can be specifically and efficiently isolated by immunoprecipitation. […]

Nc1nc(=O)[nH]cc1F [5-FC, 5-fluorocytosine]
enrichment of human mRNAs compared to mouse mRNAs [1]: more than 10^5 fold
time for which labeling continued to increase (293T cells expressing CD): up to 24 h
time after treatment at which labeled mRNAs were detectable (293T cells expressing CD; three representative genes): 2 h
